The text below walks through data of patent publication EP4311545A1, “COMPOUNDS USEFUL FOR THE POST-STING TREATMENT FROM A CNIDARIAN ORGANISM” (Isdin, S. A., priority 2022, dated 2024).

For this test, the system named is P. noctiluca. Put plainly: Tentacle Skin Blood Agarose Assay (TSBAA): venom load after natural stimulation of nematocyst discharge. To be noted: for discharge of nematocysts: summary of the results of Examples 1 and 2. The test is classed as cell-based. The procedure: Example 2: Natural stimulation of nematocyst discharge. Tentacle Skin Blood Agarose Assay (TSBAA).
Briefly, an agarose gel preparation incorporating sheep red blood cells (SRBCs) (Thermo Fisher Scientific) was used covered by a thin tissue of pig intestine to simulate the effect of the human skin barrier.
A solution of 4% low melting point agarose (INVITROGEN ™ LMP Agarose) in phosphate buffered saline (PBS) (SIGMA) was prepared and cooled to room temperature for a few minutes. The SRBCs were centrifuged and resuspended in PBS until a final concentration of 2% was obtained. Equal volumes of both preparations were mixed and poured onto a glass surface with a mold (18x7.5 cm) and allowed to cool to room temperature. Once the agarose with SRBCs was set, rectangles were cut and placed on slides and kept at 4 °C in a humidification chamber (maximum 72 hours until use).
Pig small intestine tissue was washed in a 50 mM saline solution and then cut in rectangular sections. […] The next day, the sections were stretched on a glass surface and allowed to dry for a few minutes in the open air. The pretreated sections of the pig small intestine were placed on the SRBC agarose rectangles
Cutting tentacles of the same size is a complicated process due to the contraction and expansion of the tentacles after their manipulation. In order to control the sting area, we design plastic molds obtained through a 3D printer.
Tentacle pieces of approximately 3 cm long were incubated on reductor or inhibitory solutions (Method 3) for 5 minutes. Consecutively, the agarose rectangles were stung by a sting diameter of 57,35 mm^2 for 1 minute. A weight of 0,66 g was applied to ensure the contact between the tentacle and the skin. After the sting process, the plastic molds and the intestine sections were removed and the SRBC's agarose rectangles were stored in the humidification chamber at room temperature. After a period of 22 hours, images of the hemolytic areas were obtained with a camera. Hemolytic areas were calculated using the Fiji version of ImageJ software (J. Schindelin et al., Fiji: an open-source platform for biological-image analysis. Nature methods, 2012, vol. 9, pp. 676-682). Table 2. Inhibitory efficacy on the venom load to P. noctiluca.

Turning to `CC(C)(C)C1CCC(O)CC1` (stereo not shown) [4-tert-butyl cyclohexanol], the discharge of nematocysts entry is “significantly reduces”.
Take `CC(O)CCO` (stereo not shown) [100% Butylene glycol, Butylene glycol]: for the setting “tentacles incubated 5 minutes in solution, sting 1 minute on SRBC agarose covered with pig intestine, read after 22 hours”, the “Venom load - Hemolytic area (%)” value is 26.54 ± 19.66%. Moreover, the “% Inhibitory” value ({}) is reported as 56.33%.
Consider `O=C(CO)c1ccccc1` [HAP, hydroxy acetophenone], for which the discharge of nematocysts entry is “significantly reduces”.
